Assay results as given in US20170202782A1 (Abraxis BioScience, LLC, priority 2014, published 2017).

Tests used:
[1] = target: T1, Bcl-w (Homo sapiens, UniProt Q92843); conditions: cited from earlier work
T1 sequence (Q92843 1-193): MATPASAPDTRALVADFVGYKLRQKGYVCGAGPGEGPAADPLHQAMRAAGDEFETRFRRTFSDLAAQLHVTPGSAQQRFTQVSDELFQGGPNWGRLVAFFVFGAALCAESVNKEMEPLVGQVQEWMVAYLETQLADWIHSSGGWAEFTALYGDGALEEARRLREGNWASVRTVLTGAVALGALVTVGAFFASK

[2] = tested on: human pancreatic carcinoma MiaPACA2 xenograft tumors; assay: CIVO arrayed microinjection into xenografted MiaPACA2 tumors, immunofluorescence (CC3, pHH3)
Procedure: Microinjections were performed using the CIVO™ arrayed microinjection device (Presage Biosciences, Seattle Wash.). This device enables simultaneous delivery of multiple drug samples, each individually, directly into spatially defined positions within a living tumor. The CIVO device having a 5 needle array was inserted transcutaneously into flank tumors of anesthetized mice.
24 hours later, tumors were resected and sectioned across the axis of injection to produce histological sections of tumor that show the 5 different sites of injection.
Circular regions of interests (ROI) centered on the injection sites were inscribed. Within each ROI, the fraction of cells expressing CC3 was mapped as a function of radial distance from the injection site. To generate radial response plots, calculations were made at 100 micron intervals and were based on all cells within a 100 micron wide band centered at each radial distance. Measurements began at 200 microns to exclude regions directly affected by needle induced injury.
Tumors from a first set of mice were processed for immunofluorescence analysis with CC3 antibodies 24 hours after injection (FIG. 3A), and tumors from a second set were processed for analysis with CC3 antibodies 48 hours after injection (FIG. 3B). […]

SMILES	Ki [1]	CC3 positive cells at the site of injection ([2]; MiaPACA2 tumors, 24 hours, diminished with increasing radial distance (FIG. 2))	synergy with Abraxane in inducing tumor cell death ([2]; solid tumor models, combination with Abraxane (summary statement))
CC1(C)CCC(c2ccc(Cl)cc2)=C(CN2CCN(c3ccc(C(=O)NS(=O)(=O)c4ccc(N[C@H](CCN5CCOCC5)CSc5ccccc5)c(S(=O)(=O)C(F)(F)F)c4)cc3)CC2)C1 [ABT-263]	≤ 1 nM	–	–
CC1(C)CCC(CN2CCN(c3ccc(C(=O)NS(=O)(=O)c4ccc(NCC5CCOCC5)c([N+](=O)[O-])c4)c(Oc4cnc5[nH]ccc5c4)c3)CC2)=C(c2ccc(Cl)cc2)C1 [ABT-199]	–	increase	not observed
